In US7749725B2, “Drug screening and diagnosis based on paracrine tubular renin-angiotensin system” (University of Utah Research Foundation, priority 1998, dated 2010):
Entries after “also recorded” stand apart in the source; their conditions may differ.

Columns and labels:
[1] = tested on: renin expression in CNT cells; assay: Renin expression in CNT cells by quantitative histology (renin immunostaining) after sodium diet and diuretics; type: in vivo, C57BL6 mice
Method: (§1) 3. Animal experiments and measurements. C57BL6 mice were used following IRB approved protocols. Twenty-four hours prior to dietary sodium manipulations, all animals were fasted with free access to water, supplemented with 2% glucose and 0.1% KCl. Either one mg/kg amiloride and 2 mg/kg furosemide (52) or control carrier were applied by subcutaneous injection. Low sodium (0.3% sodium) and high sodium (6%) diets were purchased from Purina Mills (Purina Mills Inc., St. Louis, Mo.). Blood was collected by cardiac puncture. Spot urine was collected by bladder puncture. Hemidissected kidneys were formalin-fixed or snap-frozen in liquid nitrogen. For urine collection, mice were placed in metabolic cages (Nalgene, Nalge Nunc International, Rochester, N.Y.). Urine specimens were collected at 12 h intervals in tubes containing AEBSF and 8-hydroxyquinoline (NEN-DuPont, Boston, Mass.). Weight and urine volumes were recorded daily. Urinary Ang and A-I measurements were corrected for creatinine or expressed as total urinary Ang. RNA isolation and RT-PCR were performed following standard protocols (QIAGEN, Valencia, Calif.). […]
5. […] The biotinylated secondary antibody was detected using streptavidin conjugated with horseradish peroxidase or alkaline phosphatase and visualized with either 3-amino-9-ethyl-carbazole (AEC; Sigma) or NBT/BCIP, respectively. […]
6. Quantitative histology. Renin expression in renal tubular cells as a function of sodium diet, or diuretics, was assayed by quantitating the frequency of renin immunostaining in segments of the distal nephron using the peroxidase reporter enzyme and AEC chromogen. Two independent blinded investigators scored sagittal kidney for renin using a subjective 0-4 scale: 0 equaled no tubular renin staining; 1 equaled at least one positive cell per tubule segment; 2 equaled between 25-50% of cells per of tubule segment; 3 equaled more than 50% of cells per tubule segment stained for renin; 4 equaled >75%. […] Results were analyzed by comparing the mean±S.E.M. between groups using unpaired t-tests. p<0.05 was considered significant. […]

renin expression in JGA = assay: JGA renin expression by semiquantitative RT-PCR of total kidney RNA; type: in vivo, C57BL6 mice; details: overnight
Method: as §1, with “Ang.” for “Ang. RNA isolation and RT-PCR were performed following standard protocols (QIAGEN, Valencia, Calif.).”
On the basis of immunostaining and expression studies, we conclude that, in addition to its major site of expression in JGA, renin is also expressed in connecting tubule. […] Renin expression in CNT cells was assessed by quantitative histology (frequency of CNT cells staining for renin). […] Manipulation of dietary sodium was monitored by measuring total sodium excretion. […]

SMILES | renin expression in CNT ([1]; sodium restriction plus furosemide (2 mg/kg, subcutaneous), overnight, vs sodium restriction alone) | JGA renin (renin expression in JGA; sodium restriction plus furosemide (2 mg/kg, subcutaneous), vs sodium restriction alone) | renin expression in distal nephron ([1]; blocking the sodium channel of principal cells (summary statement)) | CNT immunoreactive renin ([1]; high sodium diet plus amiloride (one mg/kg, subcutaneous), overnight, vs high sodium alone) | JGA renin (renin expression in JGA; high sodium diet plus amiloride (one mg/kg, subcutaneous), p<0.05)
NS(=O)(=O)c1cc(C(=O)O)c(NCc2ccco2)cc1Cl [furosemide] | decreased | without additional effects |  |  | 
N=C(N)NC(=O)c1nc(Cl)c(N)nc1N [amiloride] |  |  | up-regulation | increased; also recorded: marked increase | significantly decreased
